The results in this text go back to patent publication EP2140864A2 (H. Lundbeck A/S, priority 2001, dated 2002).

Chain of 5HT transporter (P31652 whole entry): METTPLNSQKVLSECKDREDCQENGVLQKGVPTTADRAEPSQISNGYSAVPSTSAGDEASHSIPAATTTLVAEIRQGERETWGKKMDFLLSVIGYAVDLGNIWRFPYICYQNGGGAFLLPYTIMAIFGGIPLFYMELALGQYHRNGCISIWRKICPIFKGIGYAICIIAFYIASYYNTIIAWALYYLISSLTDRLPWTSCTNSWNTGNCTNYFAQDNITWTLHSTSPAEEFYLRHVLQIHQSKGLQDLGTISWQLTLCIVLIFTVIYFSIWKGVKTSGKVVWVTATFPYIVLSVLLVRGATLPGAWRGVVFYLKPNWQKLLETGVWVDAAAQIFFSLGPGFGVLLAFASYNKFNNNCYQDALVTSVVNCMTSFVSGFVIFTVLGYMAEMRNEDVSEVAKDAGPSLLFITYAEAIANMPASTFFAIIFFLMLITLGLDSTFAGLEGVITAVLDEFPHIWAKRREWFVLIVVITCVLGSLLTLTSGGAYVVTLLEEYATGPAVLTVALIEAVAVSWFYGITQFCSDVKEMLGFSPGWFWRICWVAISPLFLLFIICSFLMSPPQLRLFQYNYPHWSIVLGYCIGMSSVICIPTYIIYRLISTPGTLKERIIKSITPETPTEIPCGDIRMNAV
T3 sequence (P34969 1-445 isoform P34969-2): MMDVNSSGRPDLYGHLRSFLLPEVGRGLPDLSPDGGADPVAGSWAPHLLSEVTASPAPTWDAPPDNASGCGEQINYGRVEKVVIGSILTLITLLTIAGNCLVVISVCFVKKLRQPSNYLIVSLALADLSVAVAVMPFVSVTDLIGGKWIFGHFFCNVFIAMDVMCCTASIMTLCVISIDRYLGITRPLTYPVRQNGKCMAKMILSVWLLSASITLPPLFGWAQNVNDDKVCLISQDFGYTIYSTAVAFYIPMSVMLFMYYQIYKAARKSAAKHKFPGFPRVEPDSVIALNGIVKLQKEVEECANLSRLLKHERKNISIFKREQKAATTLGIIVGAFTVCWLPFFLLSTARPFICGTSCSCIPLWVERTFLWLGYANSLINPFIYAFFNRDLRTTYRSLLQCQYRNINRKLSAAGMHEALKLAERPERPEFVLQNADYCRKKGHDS
T1 sequence (Q13639 whole entry): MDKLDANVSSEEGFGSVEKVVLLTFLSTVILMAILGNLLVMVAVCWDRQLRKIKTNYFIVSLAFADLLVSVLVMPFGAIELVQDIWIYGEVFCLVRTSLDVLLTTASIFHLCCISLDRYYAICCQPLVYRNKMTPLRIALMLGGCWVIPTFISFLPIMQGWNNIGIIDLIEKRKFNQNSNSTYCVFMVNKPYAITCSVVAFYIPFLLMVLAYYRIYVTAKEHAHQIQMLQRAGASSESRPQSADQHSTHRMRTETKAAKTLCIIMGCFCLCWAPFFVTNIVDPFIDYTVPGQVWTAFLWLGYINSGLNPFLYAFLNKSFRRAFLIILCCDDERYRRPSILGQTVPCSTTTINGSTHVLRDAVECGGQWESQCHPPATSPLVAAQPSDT
T2 sequence (P28566 whole entry): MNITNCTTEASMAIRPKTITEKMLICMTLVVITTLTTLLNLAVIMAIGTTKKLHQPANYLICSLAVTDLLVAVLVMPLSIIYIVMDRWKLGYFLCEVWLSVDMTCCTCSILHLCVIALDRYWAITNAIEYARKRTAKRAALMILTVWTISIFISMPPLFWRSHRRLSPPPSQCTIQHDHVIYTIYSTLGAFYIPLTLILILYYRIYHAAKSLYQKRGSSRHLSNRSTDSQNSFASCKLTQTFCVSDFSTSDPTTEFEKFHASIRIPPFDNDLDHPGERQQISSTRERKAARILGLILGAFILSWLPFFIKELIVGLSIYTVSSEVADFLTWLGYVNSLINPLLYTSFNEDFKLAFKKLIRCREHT

One assay concerns the target T1, human 5HT4 receptor (Homo sapiens, UniProt Q13639).
T1 construct: expressed in transfected cells
The assay can be described thus: Radioligand binding, 5-HT4 receptor. The note with it: Table 7; read-out: h5HT4 Ki. As to the method: (§1) Other 5-HT Receptors: Other serotonin receptor binding assays were performed according to published methods: rat 5HT2C receptor (Julius et al., 1988); and 5-HT6 (Monsma, et al., 1993). The binding assays using the 5-HT4 receptor were performed according to the procedures described in U.S. Patent No. 5,766,879, the disclosure of which is hereby incorporated by reference in its entirety into this application.
(§2) Binding data were analyzed using nonlinear regression and statistical techniques available in the GraphPAD Prism package (San Diego, CA). Enzymatic assay data were derived from a standard curve of reference compound data.
A word on the Ki: it is the equilibrium dissociation constant of an inhibitor or competing ligand from its target. As for `Cc1ccc(Nc2cc(N(C)C)nc(N(C)CCc3c[nH]c4ccccc34)n2)cc1` [Example 77], the Ki was 1320 nM.

Still in this assay, the particulars now being: Table 8; Ki h5HT4 divided by Ki hGAL3.
`Cc1ccc(Nc2cc(N(C)C)nc(N(C)CCc3c[nH]c4ccccc34)n2)cc1` [Example 77]: the “selectivity ratio h5HT4” value is 17.

The next assay addresses T2, human 5HT1E (Homo sapiens, UniProt P28566).
T2 construct: expressed in transfected cells
Briefly: Radioligand binding, 5HT1E receptor ([3H]-serotonin). Conditions: Table 7; read-out: h5HT1E Ki. As to the method: (§3) Human 5HT1B, 5HT1D, 5HT1E, 5HT1F, and 5HT7 Receptors: The cell lysates of LM(tk-) clonal cell line stably transfected with the genes encoding each of these 5HT receptor-subtypes were prepared as described above. Cell membranes were suspended in 50mM Tris-HCl buffer (pH 7.4 at 37°C) containing 10 mM MgCl2, 0.2 mM EDTA, 10 µM pargyline, and 0.1% ascorbate. […] Nonspecific binding was determined in the presence of 10 µM serotonin. The bound radioligand was separated by filtration through GF/B filters using a cell harvester.
as §2
Regarding `Cc1ccc(Nc2cc(N(C)C)nc(N(C)CCc3c[nH]c4ccccc34)n2)cc1` [Example 77], the Ki came out at 5890 nM.

Still in this assay, the particulars now being: Table 8; Ki h5HT1E divided by Ki hGAL3.
`Cc1ccc(Nc2cc(N(C)C)nc(N(C)CCc3c[nH]c4ccccc34)n2)cc1` [Example 77]: the “selectivity ratio h5HT1E” value is on record as above 30.

The target in the next assay is DA transporter (Rattus norvegicus, UniProt P23977). Briefly: Binding at native DA transporter. The note with it: Table 7; native transporter, head prints r (rat); read-out: rDA Uptk Ki. As to the method: (§4) The binding properties of the compounds of the present invention were evaluated at one or more cloned receptors or native, tissue-derived transporters, using protocols described below.
Chain of DA transporter (P23977 whole entry): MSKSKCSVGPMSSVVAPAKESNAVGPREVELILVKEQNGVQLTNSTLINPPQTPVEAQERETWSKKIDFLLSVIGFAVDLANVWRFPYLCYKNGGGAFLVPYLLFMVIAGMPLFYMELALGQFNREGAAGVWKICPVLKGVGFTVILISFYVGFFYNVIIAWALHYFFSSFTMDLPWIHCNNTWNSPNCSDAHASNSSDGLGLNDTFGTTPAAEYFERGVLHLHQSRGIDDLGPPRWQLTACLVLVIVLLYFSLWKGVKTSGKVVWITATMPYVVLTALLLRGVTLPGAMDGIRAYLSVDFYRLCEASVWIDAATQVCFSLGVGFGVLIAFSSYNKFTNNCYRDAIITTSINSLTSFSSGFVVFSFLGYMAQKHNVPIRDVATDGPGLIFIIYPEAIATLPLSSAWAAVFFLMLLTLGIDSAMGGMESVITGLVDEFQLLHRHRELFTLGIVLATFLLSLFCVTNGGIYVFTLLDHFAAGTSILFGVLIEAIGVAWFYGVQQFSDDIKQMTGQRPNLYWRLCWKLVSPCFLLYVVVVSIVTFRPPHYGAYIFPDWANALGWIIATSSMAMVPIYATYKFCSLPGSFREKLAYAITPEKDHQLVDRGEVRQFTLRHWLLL
(§5) The methods to determine binding affinity at native transporters are described in the following publications: 5HT transporter and NE transporter (Owens et al., 1997), and DA transporter (Javitch et al, 1984).
as §2
Regarding `Cc1ccc(Nc2cc(N(C)C)nc(N(C)CCc3c[nH]c4ccccc34)n2)cc1` [Example 77], the inhibition constant Ki was 2790 nM.

Staying with this assay, now noted: Table 8; Ki rDA Uptk divided by Ki hGAL3.
As for `Cc1ccc(Nc2cc(N(C)C)nc(N(C)CCc3c[nH]c4ccccc34)n2)cc1` [Example 77], the “selectivity ratio rDA Uptk” value is recorded as above 30.

The next assay has as its target T3, human 5HT7 (Homo sapiens, UniProt P34969).
T3 construct: expressed in transfected cells
Briefly: Radioligand binding, 5HT7 receptor ([3H]-serotonin). The note with it: Table 7; read-out: h5HT7 Ki. As to the method: as §3, §2
Turning to `Cc1ccc(Nc2cc(N(C)C)nc(N(C)CCc3c[nH]c4ccccc34)n2)cc1` [Example 77], the Ki is 1550 nM.

Still in this assay, the particulars now being: Table 8; Ki h5HT7 divided by Ki hGAL3.
Regarding `Cc1ccc(Nc2cc(N(C)C)nc(N(C)CCc3c[nH]c4ccccc34)n2)cc1` [Example 77], the “selectivity ratio h5HT7” value is listed as 20.

In another assay the target is T4, dopamine D5 receptor (Homo sapiens, UniProt P21918).
T4 construct: expressed in transfected cells
T4 sequence (P21918 whole entry): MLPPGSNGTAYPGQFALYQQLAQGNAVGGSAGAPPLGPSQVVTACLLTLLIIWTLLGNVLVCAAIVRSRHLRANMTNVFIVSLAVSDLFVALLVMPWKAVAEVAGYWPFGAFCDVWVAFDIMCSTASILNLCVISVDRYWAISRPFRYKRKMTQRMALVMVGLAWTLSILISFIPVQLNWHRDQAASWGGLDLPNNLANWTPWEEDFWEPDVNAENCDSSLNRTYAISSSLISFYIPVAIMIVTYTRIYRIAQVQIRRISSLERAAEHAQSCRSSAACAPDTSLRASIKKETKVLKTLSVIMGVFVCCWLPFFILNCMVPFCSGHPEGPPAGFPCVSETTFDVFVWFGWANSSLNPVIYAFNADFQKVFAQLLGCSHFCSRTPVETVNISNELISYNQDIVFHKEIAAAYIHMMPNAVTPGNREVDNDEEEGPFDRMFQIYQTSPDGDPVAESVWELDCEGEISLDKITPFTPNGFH
Briefly: Radioligand binding, dopamine D5 receptor. The note with it: Table 9; read-out: hD5 Ki.
Excerpt: (§6) Other receptors: Cell membranes expressing human dopamine D1, D2, D4 and rat D3 receptors were purchased through BioSignal, Inc. (Montreal, Canada). Binding assays using the histamine H1 receptor; dopamine receptors; and α1A, α1E, and α2 adrenergic receptors may be carried out according to the procedures described in U.S. Patent No. 5,780,485, the disclosure of which is hereby incorporated by reference in its entirety into this application. Binding assays using the dopamine D5 receptor may be carried out according to the procedures described in U.S. Patent No. 5,882,855, the disclosure of which is hereby incorporated by reference in its entirety into this application. Binding assays for the human α1D adrenergic receptor may be carried out according to the procedures described in U.S. Patent No. 6,156,518, the disclosure of which is hereby incorporated by reference in its entirety into this application.
as §2
Consider `Cc1ccc(Nc2cc(N(C)C)nc(N(C)CCc3c[nH]c4ccccc34)n2)cc1` [Example 77], for which the inhibitory constant (Ki) stood at 122 nM.

The same assay, now with this note: Table 10; Ki hD5 divided by Ki hGAL3.
On to `Cc1ccc(Nc2cc(N(C)C)nc(N(C)CCc3c[nH]c4ccccc34)n2)cc1` [Example 77], for which the “selectivity ratio hD5” value is reported as 2.

The target in another assay is T5, human 5HT1D (Homo sapiens, UniProt P28221).
T5 construct: expressed in transfected cells
T5 sequence (P28221 whole entry): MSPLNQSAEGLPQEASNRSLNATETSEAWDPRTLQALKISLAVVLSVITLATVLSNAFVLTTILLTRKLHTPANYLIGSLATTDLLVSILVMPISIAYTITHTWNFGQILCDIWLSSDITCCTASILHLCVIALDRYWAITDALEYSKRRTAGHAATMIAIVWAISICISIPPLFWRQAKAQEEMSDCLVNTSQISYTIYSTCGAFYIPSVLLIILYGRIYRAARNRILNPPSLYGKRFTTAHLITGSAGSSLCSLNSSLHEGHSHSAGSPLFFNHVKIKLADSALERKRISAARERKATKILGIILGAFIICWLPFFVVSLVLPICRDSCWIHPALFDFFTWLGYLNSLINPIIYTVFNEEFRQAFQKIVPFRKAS
The assay can be described thus: Radioligand binding, 5HT1D receptor ([3H]-serotonin). The note with it: Table 7; read-out: h5HT1D Ki. The protocol: as §3, §2
On to `Cc1ccc(Nc2cc(N(C)C)nc(N(C)CCc3c[nH]c4ccccc34)n2)cc1` [Example 77], for which the inhibition constant (Ki) is 716 nM.

The same assay, now with this note: Table 8; Ki h5HT1D divided by Ki hGAL3.
Consider `Cc1ccc(Nc2cc(N(C)C)nc(N(C)CCc3c[nH]c4ccccc34)n2)cc1` [Example 77], for which the “selectivity ratio h5HT1D” value was found to be 9.

The target in the next assay is 5HT transporter (Rattus norvegicus, UniProt P31652). The assay can be described thus: Binding at native 5HT transporter. Conditions: Table 7; native transporter, head prints r (rat); read-out: r5HT Uptk Ki. The protocol:
as §4, §5, §2
On to `Cc1ccc(Nc2cc(N(C)C)nc(N(C)CCc3c[nH]c4ccccc34)n2)cc1` [Example 77], for which the Ki was 821 nM.

Still in this assay, the particulars now being: Table 8; Ki r5HT Uptk divided by Ki hGAL3.
As for `Cc1ccc(Nc2cc(N(C)C)nc(N(C)CCc3c[nH]c4ccccc34)n2)cc1` [Example 77], the “selectivity ratio r5HT Uptk” value worked out at 10.

The target of another assay is T6, human α2B adrenoceptor (Homo sapiens, UniProt P18089).
T6 construct: expressed in transfected cells
T6 sequence (P18089 1-450): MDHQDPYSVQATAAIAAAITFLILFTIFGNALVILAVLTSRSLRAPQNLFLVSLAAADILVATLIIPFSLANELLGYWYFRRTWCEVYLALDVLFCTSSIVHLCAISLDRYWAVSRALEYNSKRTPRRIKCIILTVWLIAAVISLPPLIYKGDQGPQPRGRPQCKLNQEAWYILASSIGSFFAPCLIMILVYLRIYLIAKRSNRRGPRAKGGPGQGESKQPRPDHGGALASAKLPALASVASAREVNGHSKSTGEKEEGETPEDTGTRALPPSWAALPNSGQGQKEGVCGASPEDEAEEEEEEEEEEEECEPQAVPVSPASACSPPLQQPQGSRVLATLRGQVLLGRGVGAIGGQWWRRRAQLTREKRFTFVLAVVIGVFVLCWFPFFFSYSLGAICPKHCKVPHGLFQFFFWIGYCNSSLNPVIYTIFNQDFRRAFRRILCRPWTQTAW
The assay can be described thus: Radioligand binding, α2B adrenergic receptor. The note with it: Table 9; read-out: hα2B Ki.
Excerpt: as §6, §2
As for `Cc1ccc(Nc2cc(N(C)C)nc(N(C)CCc3c[nH]c4ccccc34)n2)cc1` [Example 77], the Ki was found to be 7780 nM.

Staying with this assay, now noted: Table 10; Ki hα2B divided by Ki hGAL3.
Take `Cc1ccc(Nc2cc(N(C)C)nc(N(C)CCc3c[nH]c4ccccc34)n2)cc1` [Example 77]: the “selectivity ratio hα2B” value is above 30.

The next assay deals with T7, human α1B adrenoceptor (Homo sapiens, UniProt P35368).
T7 construct: expressed in transfected cells
T7 sequence (P35368 1-520): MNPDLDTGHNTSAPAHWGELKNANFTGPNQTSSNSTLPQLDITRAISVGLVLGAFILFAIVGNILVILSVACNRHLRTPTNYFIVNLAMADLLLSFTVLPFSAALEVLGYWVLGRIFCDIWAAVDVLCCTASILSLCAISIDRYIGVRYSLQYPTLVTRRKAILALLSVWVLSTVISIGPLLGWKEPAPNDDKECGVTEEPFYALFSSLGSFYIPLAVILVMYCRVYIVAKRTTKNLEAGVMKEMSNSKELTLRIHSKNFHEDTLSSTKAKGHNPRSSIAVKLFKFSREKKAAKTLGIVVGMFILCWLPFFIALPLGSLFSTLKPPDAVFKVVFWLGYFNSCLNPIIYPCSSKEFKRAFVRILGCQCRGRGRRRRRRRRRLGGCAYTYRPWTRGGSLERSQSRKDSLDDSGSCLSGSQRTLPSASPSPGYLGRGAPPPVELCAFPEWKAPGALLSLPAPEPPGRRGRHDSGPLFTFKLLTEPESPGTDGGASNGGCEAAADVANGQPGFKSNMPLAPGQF
The assay can be described thus: Radioligand binding, α1B adrenergic receptor. The note with it: Table 9; read-out: hα1B Ki.
As for `Cc1ccc(Nc2cc(N(C)C)nc(N(C)CCc3c[nH]c4ccccc34)n2)cc1` [Example 77], the Ki worked out at 452 nM.

Still in this assay, the particulars now being: Table 10; Ki hα1B divided by Ki hGAL3.
With `Cc1ccc(Nc2cc(N(C)C)nc(N(C)CCc3c[nH]c4ccccc34)n2)cc1` [Example 77], the “selectivity ratio hα1B” value amounted to 6.

For the next assay, the target named is T8, human 5HT6 (Homo sapiens, UniProt P50406).
T8 construct: expressed in transfected cells
T8 sequence (P50406 whole entry): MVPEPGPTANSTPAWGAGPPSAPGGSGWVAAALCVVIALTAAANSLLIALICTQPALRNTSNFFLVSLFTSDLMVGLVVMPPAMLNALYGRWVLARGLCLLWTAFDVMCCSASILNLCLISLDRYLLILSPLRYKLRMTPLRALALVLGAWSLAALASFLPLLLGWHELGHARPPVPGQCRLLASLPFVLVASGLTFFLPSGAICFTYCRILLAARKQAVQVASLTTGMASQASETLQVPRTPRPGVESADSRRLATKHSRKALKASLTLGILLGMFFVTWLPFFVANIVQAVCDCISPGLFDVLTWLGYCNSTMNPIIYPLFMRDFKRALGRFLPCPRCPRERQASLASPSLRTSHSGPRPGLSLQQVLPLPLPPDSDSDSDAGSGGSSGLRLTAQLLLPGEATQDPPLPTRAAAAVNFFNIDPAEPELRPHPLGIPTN
Briefly: Radioligand binding, 5-HT6 receptor. The note with it: Table 7; read-out: h5HT6 Ki. As to the method:
as §1, §2
Turning to `Cc1ccc(Nc2cc(N(C)C)nc(N(C)CCc3c[nH]c4ccccc34)n2)cc1` [Example 77], the Ki was 503 nM.

Staying with this assay, now noted: Table 8; Ki h5HT6 divided by Ki hGAL3.
Take `Cc1ccc(Nc2cc(N(C)C)nc(N(C)CCc3c[nH]c4ccccc34)n2)cc1` [Example 77]: the “selectivity ratio h5HT6” value is 6.

The target of another assay is T9, human dopamine D1 (Homo sapiens, UniProt P21728).
T9 construct: purchased BioSignal, Inc. (Montreal, Canada); host or cells: membranes of cells expressing the receptor
T9 sequence (P21728 whole entry): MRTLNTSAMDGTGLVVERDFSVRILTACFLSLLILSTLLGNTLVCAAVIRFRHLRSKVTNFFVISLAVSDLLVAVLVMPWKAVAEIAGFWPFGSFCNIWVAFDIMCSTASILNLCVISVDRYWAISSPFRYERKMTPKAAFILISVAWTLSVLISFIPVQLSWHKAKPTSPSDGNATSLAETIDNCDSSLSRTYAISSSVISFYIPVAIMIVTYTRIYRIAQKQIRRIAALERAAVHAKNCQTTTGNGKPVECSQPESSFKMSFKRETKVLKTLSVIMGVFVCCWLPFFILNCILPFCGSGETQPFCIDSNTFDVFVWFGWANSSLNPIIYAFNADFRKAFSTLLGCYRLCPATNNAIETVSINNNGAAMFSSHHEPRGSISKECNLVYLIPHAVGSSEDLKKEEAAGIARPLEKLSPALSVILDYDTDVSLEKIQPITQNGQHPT
Briefly: Radioligand binding, dopamine D1 receptor. Conditions: Table 9; read-out: hD1 Ki.
Excerpt: as §6, §2
In the case of `Cc1ccc(Nc2cc(N(C)C)nc(N(C)CCc3c[nH]c4ccccc34)n2)cc1` [Example 77], the inhibition constant (Ki) was 60 nM.

Staying with this assay, now noted: Table 10; Ki hD1 divided by Ki hGAL3.
Regarding `Cc1ccc(Nc2cc(N(C)C)nc(N(C)CCc3c[nH]c4ccccc34)n2)cc1` [Example 77], the “selectivity ratio hD1” value worked out at 0.8.
